Results: patent US20180214440A1, “ORAL COMPOSITION” (HELPERBY THERAPEUTICS LIMITED, priority 2015, published 2018)

Test system: log phase S. aureus
Test: Time-kill studies for 240 minutes, Example 3
Assay type: cell-based
Conditions: alone at 0.01% w/v, FIG. 6
Procedure: FIGS. 4, 5 and 6 contain the results of the time-kill studies then carried out against log phase S. aureus for 240 minutes (4 hours).
These formulations included chlorhexidine digluconate at either 0.06% w/v, 0.04% w/v, 0.03% w/v or 0.015% w/v.
Corsodyl® Daily Defence mouthwash 0.06% is a commercially available product manufactured by GlaxoSmithKline which contains 0.06% w/v chlorhexidine digluconate.
The time to zero values for each of the FIGS. 4 to 6 are shown below in Table 4.

Cc1nc2ccc(Oc3ccccc3)cc2c2c1CCN2CCc1ccccc1 [HT61, 4-methyl-8-phenoxy-1-(2-phenylethyl)-2,3-dihydro-1H-pyrrolo[3,2-c]quinoline]
antimicrobial activity against log phase S. aureus: does not have significant antimicrobial activity
